pIC50: −log10 of the molar value. Converted amounts (≈) assume the structure as drawn. Like-named read-outs stand apart in the source and are kept apart here.
Key:
[1] = biological target: wild-type HCV NS5B RNA-dependent RNA polymerase (Hepatitis C virus genotype 2b, UniProt Q9DHD6); format: biochemical
[2] = tested on: patient derived HCV NS5B RNA-dependent RNA polymerase; format: biochemical, hepatitis C virus
[3] = tested on: mutant DNA gyrase A protein; assay: Supercoiling inhibition and DNA cleavage assays; format: biochemical, Streptococcus pneumoniae; settings: for MIC relative to maximal serum drug concentrations reported for standard dosage regimens: enzyme inhibition or DNA cleavage assays
Procedure: (§1) The functional activity of the purified mutant DNA gyrase A protein obtained from the fluoroquinolone resistant Streptococcus pneumoniae was compared to wild-type DNA gyrase A protein in supercoiling inhibition assays and DNA cleavage assays as described in Pan et al., and Barnard et al., supra. A concentration range of antibiotics was added to contact both the wild-type and mutant proteins. In addition, the affinities for each antibiotic and both the wild-type and mutant proteins were derived according to the method described in Roychoudhury, et al., supra.

[4] = tested on: mutant lanosterol 14 alpha-demethylase proteins; assay: Prevention of CO-complex formation with reduced cytochrome P450, mutant; format: binding, C. albicans; settings: mutant versus wild-type
Procedure: (§2) Microsomes were isolated from C. albicans as described in Marichal, P., et al., Microbiology (1999), 145, 2701-2713, incorporated herein by reference. Prevention of CO-complex formation in the reduced microsomal cytochrome P450 preparation provides an assay that can be used to test the affinity of the protein for an azole. The P-450 content and the effects of azoles on the interaction of CO with the reduced haem iron of P-450 were measured as described in Vanden Bossche, H., et al., Drug Dev Res, 8:287-298 (1986), incorporated herein by reference. The assay employed 0.1 nmol cytochrome P450 and 100 pM to 100 μM ranges of the anti-fungal compounds itraconazole and fluconazole.

[5] = biological target: T1, mutant lanosterol 14 alpha-demethylase proteins (Candida albicans, UniProt P10613); assay: as above; format: binding, C. albicans; settings: mutant proteins
T1 construct: IC50; other: mutant proteins; other: at 100 nM; A 60 kDa protein, corresponding to the lanosterol 14 alpha-demethylase protein, was produced from this eukaryotic expression system
Procedure: as §2

S. cerevisiae AD1-8u(−) = settings: Nakamura 2001; cited from earlier work
[6] = biological target: T2, wild-type lanosterol 14 alpha-demethylase protein (Candida albicans, UniProt P10613); assay: Prevention of CO-complex formation with reduced cytochrome P450, wild-type; format: binding, C. albicans; set-up: A 60 kDa protein, corresponding to the lanosterol 14 alpha-demethylase protein, was produced from this eukaryotic expression system; made in house; settings: wild-type proteins
Procedure: as §2

[7] = tested on: strain AD 1002 overexpressing C. albicans Cdr1p; settings: strain AD 1002 overexpressing Cdr1p, Nakamura 2001; cited from earlier work
[8] = tested on: DNA gyrase versus topoisomerase IV; assay: Ratio of affinity parameter, DNA gyrase to control protein topoisomerase IV; format: binding, Streptococcus pneumoniae
mutant DNA Gyrase A = assay: Binding assays (affinity), mutant gyrase A; set-up: species or system Streptococcus pneumoniae
Procedure: as §1

wild-type DNA Gyrase A = biological target: T3, wild-type DNA Gyrase A (Streptococcus pneumoniae serotype 4, UniProt P0A4L9+P72524); assay: Binding assays (affinity), wild-type gyrase A
T3 construct: A 100 kDa protein, corresponding to the DNA gyrase A protein, was produced from this eukaryotic expression system; made in house; host or cells: cell-free coupled reticulocyte lysate (TNT T7 Quick for PCR DNA, Promega)
Procedure: as §1

[9] = tested on: HIV reverse transcriptase, patient-derived protein; format: biochemical, HIV-1
Text: The PCR-generated DNA templates were expressed into HIV reverse transcriptase and protease using a coupled reticulocyte lysate system, TNT T7 Quick for PCR DNA (Promega, Madison, Wis.). Sizes of the proteins, as well as a confirmation of their integrity, was confirmed by Western Blot.

HIV = settings: cited from earlier work
[10] = biological target: T2, wild-type lanosterol 14 alpha-demethylase protein; set-up: A 60 kDa protein, corresponding to the lanosterol 14 alpha-demethylase protein, was produced from this eukaryotic expression system; made in house; host or cells: cell-free coupled reticulocyte lysate (TNT T7 Quick for PCR DNA, Promega); settings: typically reported; cited from earlier work
[11] = biological target: wild-type HBV polymerase (HBV-WT) (Hepatitis B virus genotype A2 subtype adw2, UniProt P03159); assay: DNA polymerase assay (non-radioactive, sandwich ELISA) with cell-free expressed HBV polymerase; settings: read-out: IC50, inhibition of DNA polymerase activity, FIG. 3, approximate
wild-type HBV polymerase (HBV-WT), sequence (P03159 whole entry): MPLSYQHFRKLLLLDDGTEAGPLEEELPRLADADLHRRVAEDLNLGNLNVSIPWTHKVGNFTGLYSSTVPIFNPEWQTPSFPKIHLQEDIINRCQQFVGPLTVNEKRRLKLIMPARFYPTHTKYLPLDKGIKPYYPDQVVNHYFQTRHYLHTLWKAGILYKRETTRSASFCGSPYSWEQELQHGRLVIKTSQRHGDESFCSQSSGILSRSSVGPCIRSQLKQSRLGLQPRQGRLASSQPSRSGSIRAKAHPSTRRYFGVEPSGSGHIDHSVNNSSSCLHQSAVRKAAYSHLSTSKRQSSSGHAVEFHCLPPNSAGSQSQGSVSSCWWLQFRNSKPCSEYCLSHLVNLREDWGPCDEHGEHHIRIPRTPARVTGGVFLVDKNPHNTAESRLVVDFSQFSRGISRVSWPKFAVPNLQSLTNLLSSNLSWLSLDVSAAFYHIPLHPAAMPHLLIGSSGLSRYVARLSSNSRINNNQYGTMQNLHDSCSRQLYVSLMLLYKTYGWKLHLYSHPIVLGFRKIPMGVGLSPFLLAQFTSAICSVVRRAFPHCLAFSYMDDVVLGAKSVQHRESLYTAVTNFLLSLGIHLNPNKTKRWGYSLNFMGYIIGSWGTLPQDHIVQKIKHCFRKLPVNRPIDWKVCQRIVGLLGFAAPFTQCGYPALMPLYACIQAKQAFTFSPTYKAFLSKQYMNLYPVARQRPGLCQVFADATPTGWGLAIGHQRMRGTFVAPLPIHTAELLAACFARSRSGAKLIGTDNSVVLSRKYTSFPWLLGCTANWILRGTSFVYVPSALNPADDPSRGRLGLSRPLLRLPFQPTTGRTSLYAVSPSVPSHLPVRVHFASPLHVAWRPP
Text: A sensitive DNA polymerase assay (Roche Molecular Biochemicals, Indianapolis, Ind.) was used to determine the DNA polymerase activity of the expressed HBV polymerase proteins. […] The DNA polymerase assay as shown provides a non-radioactive assay, which measures the ability of the enzyme to digoxigenin and biotin labeled nucleotides into freshly synthesized DNA. The detection of synthesized DNA as a parameter for DNA polymerase activity follows a sandwich ELISA protocol—biotin labeled nucleic acid binds the surface of a microtiter plate coated with streptavidin. An anti-digoxigenin antibody conjugated to peroxidase is incubated with the nucleic acid. Upon addition of the peroxidase substrate, a color change occurs corresponding to the peroxidase activity, which is detected by a microplate ELISA reader. The absorbance samples is directly correlated to the level of DNA polymerase activity in the sample. […] In FIG. 1, HBV-WT refers to the wild-type HBV polymerase. […] PC and NC refer respectively to positive and negative controls. Briefly, the positive control includes Klenow enzyme in polymerase buffer. The negative control includes reticulcyte lysate without the DNA amplicon.
Inhibition of DNA polymerase activity (%) was plotted against compound concentration. […]

wild-type HCV NS5B RNA-dependent RNA polymerase, sequence (Q9DHD6 2443-3033 limits assumed): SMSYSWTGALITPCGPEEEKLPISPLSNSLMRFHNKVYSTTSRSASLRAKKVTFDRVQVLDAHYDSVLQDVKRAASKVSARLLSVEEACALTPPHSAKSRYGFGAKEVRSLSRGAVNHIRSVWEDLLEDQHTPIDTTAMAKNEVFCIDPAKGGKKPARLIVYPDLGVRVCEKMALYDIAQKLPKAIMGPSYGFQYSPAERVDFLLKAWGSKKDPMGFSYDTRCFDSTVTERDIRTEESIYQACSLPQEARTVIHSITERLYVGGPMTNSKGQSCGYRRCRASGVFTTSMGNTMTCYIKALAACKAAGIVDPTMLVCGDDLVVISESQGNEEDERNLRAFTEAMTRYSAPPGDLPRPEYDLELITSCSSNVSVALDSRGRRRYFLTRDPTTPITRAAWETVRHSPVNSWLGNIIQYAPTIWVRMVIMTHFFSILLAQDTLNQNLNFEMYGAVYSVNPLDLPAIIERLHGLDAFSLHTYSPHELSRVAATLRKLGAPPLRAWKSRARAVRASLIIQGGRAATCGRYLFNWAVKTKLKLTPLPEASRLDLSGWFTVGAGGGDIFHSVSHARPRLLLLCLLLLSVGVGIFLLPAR
T2 sequence (P10613 whole entry): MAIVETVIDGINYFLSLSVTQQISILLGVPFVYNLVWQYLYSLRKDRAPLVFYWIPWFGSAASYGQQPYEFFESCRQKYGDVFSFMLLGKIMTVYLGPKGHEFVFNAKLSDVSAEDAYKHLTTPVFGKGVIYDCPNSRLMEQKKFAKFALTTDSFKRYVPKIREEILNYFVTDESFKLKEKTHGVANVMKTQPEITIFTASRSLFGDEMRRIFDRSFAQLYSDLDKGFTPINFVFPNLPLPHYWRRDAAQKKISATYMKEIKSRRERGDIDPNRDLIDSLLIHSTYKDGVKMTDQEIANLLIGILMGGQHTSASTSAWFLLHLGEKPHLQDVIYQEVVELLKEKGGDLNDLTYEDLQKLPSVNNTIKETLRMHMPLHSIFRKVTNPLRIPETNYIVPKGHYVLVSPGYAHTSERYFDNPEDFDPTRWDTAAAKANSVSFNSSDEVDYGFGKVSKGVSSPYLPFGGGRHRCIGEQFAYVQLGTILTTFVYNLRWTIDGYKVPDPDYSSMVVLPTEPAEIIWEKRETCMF
T1 sequence (P10613 whole entry, looked up, stated change not applied): as the sequence (P10613 whole entry) above
T3 sequence (P0A4L9 whole entry): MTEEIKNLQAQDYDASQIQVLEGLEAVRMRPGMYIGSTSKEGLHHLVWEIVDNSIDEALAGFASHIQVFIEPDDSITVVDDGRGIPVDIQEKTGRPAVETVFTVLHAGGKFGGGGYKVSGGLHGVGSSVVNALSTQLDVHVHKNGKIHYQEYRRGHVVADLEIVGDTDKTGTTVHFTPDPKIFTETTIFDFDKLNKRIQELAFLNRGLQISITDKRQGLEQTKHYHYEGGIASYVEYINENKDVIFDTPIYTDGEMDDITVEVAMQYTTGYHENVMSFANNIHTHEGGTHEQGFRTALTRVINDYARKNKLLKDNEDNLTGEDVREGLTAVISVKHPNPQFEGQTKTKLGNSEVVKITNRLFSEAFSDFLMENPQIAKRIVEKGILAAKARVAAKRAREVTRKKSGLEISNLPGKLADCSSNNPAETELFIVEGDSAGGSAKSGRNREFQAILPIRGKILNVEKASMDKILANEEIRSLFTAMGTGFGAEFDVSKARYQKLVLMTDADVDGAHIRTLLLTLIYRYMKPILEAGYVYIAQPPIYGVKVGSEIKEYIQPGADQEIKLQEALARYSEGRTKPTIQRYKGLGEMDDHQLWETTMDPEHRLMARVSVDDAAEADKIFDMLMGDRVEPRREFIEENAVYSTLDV
T3 sequence (P72524 whole entry): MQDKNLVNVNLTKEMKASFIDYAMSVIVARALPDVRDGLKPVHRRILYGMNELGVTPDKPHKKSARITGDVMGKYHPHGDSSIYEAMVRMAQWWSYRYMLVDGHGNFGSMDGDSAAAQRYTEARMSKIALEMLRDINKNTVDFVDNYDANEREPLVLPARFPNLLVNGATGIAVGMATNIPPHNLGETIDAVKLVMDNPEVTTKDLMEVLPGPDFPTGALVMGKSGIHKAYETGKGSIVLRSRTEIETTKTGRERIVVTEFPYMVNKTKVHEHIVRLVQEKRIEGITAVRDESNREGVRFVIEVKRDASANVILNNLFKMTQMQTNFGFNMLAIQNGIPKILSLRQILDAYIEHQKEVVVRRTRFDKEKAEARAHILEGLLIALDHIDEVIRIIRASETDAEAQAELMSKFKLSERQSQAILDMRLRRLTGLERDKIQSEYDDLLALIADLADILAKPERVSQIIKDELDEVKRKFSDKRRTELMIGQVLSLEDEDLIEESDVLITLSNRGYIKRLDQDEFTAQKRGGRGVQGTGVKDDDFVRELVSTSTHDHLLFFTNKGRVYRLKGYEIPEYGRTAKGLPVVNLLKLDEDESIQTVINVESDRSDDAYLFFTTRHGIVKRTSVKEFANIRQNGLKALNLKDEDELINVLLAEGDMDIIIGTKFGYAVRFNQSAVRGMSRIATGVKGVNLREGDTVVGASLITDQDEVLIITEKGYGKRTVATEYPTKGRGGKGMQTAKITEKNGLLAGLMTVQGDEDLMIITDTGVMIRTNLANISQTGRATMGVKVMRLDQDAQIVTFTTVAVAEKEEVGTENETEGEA

CN1C(=O)[C@]23CC4=CC=C[C@H](O)[C@H]4N2C(=O)[C@@]1(CO)SS3 [gliotoxin]
effect on RdRp activity [1]: inhibited HCV NS5B RdRp of both wild-type and patient derived proteins in a dose-dependent manner
effect on RdRp activity [2]: inhibited HCV NS5B RdRp of both wild-type and patient derived proteins in a dose-dependent manner

CO/N=C1\CN(c2nc3c(cc2F)c(=O)c(C(=O)O)cn3C2CC2)CC1CN (centres unmarked) [gemifloxacin]
MIC relative to maximal serum drug concentrations reported for standard dosage regimens [3]: below the maximal serum concentrations

OC(Cn1cncn1)(Cn1cncn1)c1ccc(F)cc1F [fluconazole]
range of IC50 values, wild-type to mutant [4]: more than 100 fold
pIC50 [5]: ~5.31
MIC(80), MIC at which 80% of cells were inhibited (S. cerevisiae AD1-8u(−)): 0.625 µg/mL
pIC50 [6]: 7.40
MIC(80) [7]: 30 µg/mL (≈ 98 µM)

N[C@@H]1[C@H]2CN(c3nc4c(cc3F)c(=O)c(C(=O)O)cn4-c3ccc(F)cc3F)C[C@@H]12 [trovafloxacin]
MIC relative to maximal serum drug concentrations reported for standard dosage regimens [3]: above the maximal serum drug concentrations

Cc1c(F)c(N2CCNC(C)C2)cc2c1c(=O)c(C(=O)O)cn2C1CC1 (centres unmarked) [grepafloxacin]
MIC relative to maximal serum drug concentrations reported for standard dosage regimens [3]: above the maximal serum drug concentrations

CN[C@@H](C)[C@@H]1CCN(c2c(F)cc3c(=O)c(C(=O)O)cn(C4CC4)c3c2OC)C1 [premafloxacin]
fold increase in inhibitory concentration of mutant versus wild-type enzyme [3]: 32 fold

NC1CCN(c2c(F)cc3c(=O)c(C(=O)O)cn(C4CC4)c3c2Cl)C1 (centres unmarked) [clinafloxacin]
ratio of the calculated affinity parameter for DNA gyrase to that for topoisomerase IV, compared with ciprofloxacin and trovafloxacin [8]: lower
MIC relative to maximal serum drug concentrations reported for standard dosage regimens [3]: below the maximal serum concentrations
affinity compared with ciprofloxacin, trovafloxacin, gatifloxacin, gemifloxacin and moxifloxacin (mutant DNA Gyrase A): higher affinities
affinity compared with ciprofloxacin, trovafloxacin, gatifloxacin, gemifloxacin and moxifloxacin (wild-type DNA Gyrase A): higher affinities

Cc1cn([C@H]2C[C@H](N=[N+]=[N-])[C@@H](CO)O2)c(=O)[nH]c1=O [AZT, zidovudine]
difference in the IC50 value, patient sample versus wild-type [9]: five-fold
reduction of virus replication (HIV): about 90%

CCC(C)n1ncn(-c2ccc(N3CCN(c4ccc(OCC5COC(Cn6cncn6)(c6ccc(Cl)cc6Cl)O5)cc4)CC3)cc2)c1=O (centres unmarked) [itraconazole]
pIC50 [5]: 7.12 to 7.52
pIC50 [10]: 7.30 to 8.00

Nc1ccn([C@@H]2CS[C@H](COP(=O)(O)OP(=O)(O)OP(=O)(O)O)O2)c(=O)n1 [lamivudine-TP]
pIC50 [11]: ~7.30

COc1c(N2CCNC(C)C2)c(F)cc2c(=O)c(C(=O)O)cn(C3CC3)c12 (centres unmarked) [gatifloxacin]
ratio of the calculated affinity parameter for DNA gyrase to that for topoisomerase IV, compared with ciprofloxacin and trovafloxacin [8]: lower
MIC relative to maximal serum drug concentrations reported for standard dosage regimens [3]: above the maximal serum drug concentrations

CC(=O)N1CCN(c2ccc(OCC3COC(Cn4ccnc4)(c4ccc(Cl)cc4Cl)O3)cc2)CC1 (centres unmarked) [ketoconazole]
MIC(80) [7]: 0.5 µg/mL (≈ 0.941 µM)

C[C@@H]1CN(c2c(F)c(N)c3c(=O)c(C(=O)O)cn(C4CC4)c3c2F)C[C@H](C)N1 [sparfloxacin]
fold increase in inhibitory concentration of mutant versus wild-type enzyme [3]: about 4 fold

NC(=O)c1ncn([C@@H]2O[C@H](COP(=O)(O)OP(=O)(O)OP(=O)(O)O)[C@@H](O)[C@H]2O)n1 [ribavirin triphosphates]
effect on RdRp activity ([1]; wild-type NS5B protein): no inhibitory effect
effect on RdRp activity [2]: no inhibitory effect

From patent US20030039957A1, “Functional protein expression for rapid cell-free phenotyping” (priority 2000, published 2003)
